According to patent publication US20260115177A1, “MEDICINAL PRODUCTS AND METHODS FOR THE ALLEVIATION OF CANCER IMMUNOTHERA-PY-ASSOCIATED CYTOKINE RELEASE SYNDROME” (POOLBEG PHARMA (UK) LIMITED, priority 2023, published 2026):

How the values were obtained:
[1] = test system: CAR T cells; test: CAR T cell proliferation in CAR T cell:cancer cell co-culture (Cell Trace Violet, flow cytometry); format: cell-based, human; details: CAR T:tumour cell co-culture 1:1; concentrations of Table 2
Experimental: CAR T cell proliferation is confirmed by Cell Trace™ Violet staining of CAR T cells (staining agent having been added prior to addition of the T cells to the co-cultures with tumour cells). Staining may be observed, following co-culture, via flow cytometry.
UR-13870, Ralimetinib or Acumapimod are each added to a culture of CD19+ cancer cells (using a micropipette to transfer the correct volume to achieve the desired final concentration in Table 2).
CAR T cells are then added to the same culture 5-10 minutes later. In brief, CAR T cell concentrations per ml are determined and used to aliquot the desired number of CAR T cells into the culture to achieve the described 1:1 CAR T to cancer cell ratio.
The co-culture containing CAR T cells and tumour cells is swirled gently to ensure homogenous dispersion of cells throughout the vessel. The resultant co-culture is incubated for 24 to 96 hours in a closed incubator at 37° C. with 5% CO2 and a suitably humid atmosphere.

[2] = test system: PBMC-humanized NSG-MHC I/II double knock-out mice with Raji-Luc CD19-expressing cancer cells; test: In vivo (murine) model using CAR T for CRS induction; set-up: species or system mouse
Experimental: An outline of the timeline of the model is provided in FIG. 16; it commences on Study Day −5 and ends on Study Day 10.
Thus, on Study Day −5, 30 female 6- to 8-week-old NSG-(KbDb)null (IA)null mice are irradiated at 100 cGy. 4 hours later, on the same day (Study Day −5) they are each injected, via tail vein, with 0.25×10^6 Raji-Luc CD19-expressing cancer cells (a Raji wild-type cell line with stable and high expression of luciferase, enabling detection of cancer burden by […]).
On Study Day −2, clinical observation commences for all 30 mice (including body weight monitoring) and all 30 mice are imaged using in vivo […] imaging (IVIS). For IVIS, mice are intraperitoneally injected with 150 mg/kg D-Luciferin. 10 minutes after the D-Luciferin injection, mice are imaged dorsally and ventrally (auto exposure) using an IVIS Lumina system (obtainable from PerkinElmer of Chalfont Road, Seer Green, Beaconsfield, HP9 2FX, UK). Region of interest (ROI) are drawn for each mouse to capture its whole body, and total flux (p/s) is reported. IVIS imaging of all 30 mice continues on a biweekly basis throughout the study, thereby monitoring cancer cell burden. Daily clinical observation continues throughout the study, including observation of CRS, CRS being scored as follows:
25 of the mice are injected intraperitoneally, on Study Day 0, with 5×10^6 anti-CD19 CAR T cells in phosphate-buffered saline.
As a control, a group consisting of 5 of the mice (“Group 1”) are not administered CAR T cells. Beginning on Study Day −1 and ending on Study Day 9, Group 1 receive treatment with 0.5% (w:v) HPMC, 0.1% (w:v) Tween 80 in sWFI (vehicle/control), administered BID at 5 mL/kg.
The 25 mice administered CAR T cells are divided into groups of 5 mice per group. […]

For `OCCCn1cc2c(-c3ccc(F)cc3)c(-c3ccncc3)c(-c3ccc(F)cc3)nc2n1` [UR-13870, 6-bis(4-fluorophenyl)-5-(4-pyridinyl)-2Hpyrazolo[3,4-b]pyridine-2-propanol], the “CAR T cell proliferation (Cell Trace Violet staining)” value [1] was “maintain CAR T cell proliferation”, the “CAR T cell expansion (flow cytometry)” value ([2]; blood, Study Days 2, 6 and 10) was “successfully maintained” and the “CAR T cell therapy efficacy, tumour burden (IVIS)” value ([2]; day 7 and day 9, UR-13870 2, 10, 25 mg/kg BID s.c., Humira 5 mg/kg i.p. once) was “remained efficacious”. For the same molecule, the “number of CAR T cells in circulation” value ([2]; day 10, high dose (25 mg/kg BID)) was “significantly enhanced”.
